From patent publication US10689383B2, “Optionally fused heterocyclyl-substituted derivatives of pyrimidine useful for the treatment of inflammatory, metabolic, oncologic and autoimmune diseases” (NUEVOLUTION A/S, priority 2014, dated 2020)
pIC50: −log10 of the molar value.

Tests used:
[1] = molecular target: T1, human RORγt (Ligand Binding Domain) (Homo sapiens, UniProt P51449); test: Fluorescence Polarization (FP) Assay; settings: Fluorescence Polarization (FP) Assay; values given as upper bounds of activity ranges; read-out: FP activity range
T1 construct: purchased Crelux (Planegg, Germany) batch no PC5032-1
T1 sequence (P51449 269-508 limits assumed): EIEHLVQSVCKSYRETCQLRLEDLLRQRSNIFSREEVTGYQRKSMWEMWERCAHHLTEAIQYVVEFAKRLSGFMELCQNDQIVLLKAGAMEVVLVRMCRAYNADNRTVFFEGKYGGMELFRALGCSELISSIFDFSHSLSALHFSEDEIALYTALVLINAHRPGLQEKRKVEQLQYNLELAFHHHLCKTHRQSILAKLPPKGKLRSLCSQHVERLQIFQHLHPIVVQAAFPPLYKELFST
Outline: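 In vitro FP binding assay monitoring ligand binding within the ligand binding pocket. Probe is a TAMRA-labelled RORγt ligand (MW 910 g/mole); DMSO served as negative control.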

[2] = molecular target: T2, yeast Gal4-DNA binding domain fused to the ligand binding domain of human RORγ (Homo sapiens, UniProt P51449); test: RORγ Reporter Assay (Gal4); format: cell-based; settings: values given as lower bounds of ranges; for Gal4 activity range @ 0.1 μM (% inhibition): RORγ Reporter Assay (Gal4) at 0.1 μM; for Gal4 activity range @ 1 μM (% inhibition): RORγ Reporter Assay (Gal4) at 1 μM
T2 construct: host or cells: HEK293t
T2 sequence (P51449 269-508 limits assumed): T1 sequence (P51449 269-508 limits assumed)
Outline: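 HEK293t reporter cells expressing the hybrid, with Gal4-UAS-driven firefly luciferase, treated in triplicate with compound at 1,000 nM and 100 nM (0.1% DMSO) in medium with 10% charcoal-stripped FBS for 24 h at 37 °C. Luminescence read; percent reduction of RLU calculated relative to vehicle.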

In the case of `NC(=O)CC1CCC(CNc2ncnc(N3CCOC[C@@H]3c3ccc(OC(F)(F)F)cc3)c2F)CC1` (stereo partly drawn) [Example 245, 2-[4-[[[5-fluoro-6-[(3S)-3-[4-(trifluoromethoxy)phenyl]morpholin-4-yl]pyrimidin-4-yl]amino]methyl]cyclohexyl] acetamide], the pIC50 [1] was greater than 6.00, the “Gal4 activity range @ 0.1 μM (% inhibition)” value [2] was greater than 20 % inhibition and the “Gal4 activity range @ 1 μM (% inhibition)” value [2] was greater than 80 % inhibition.

With `Fc1c(NCc2ccc(Cc3nnn[nH]3)cc2)ncnc1N1CCOC[C@@H]1c1ccc(OC(F)(F)F)cc1` [Example 246, 5-fluoro-N-[[4-(1H-tetrazol-5-ylmethyl)phenyl]methyl]-6-[(3S)-3-[4-(trifluoromethoxy)phenyl]morpholin-4-yl]pyrimidin-4-amine] the pIC50 [1] was greater than 6.30, the “Gal4 activity range @ 0.1 μM (% inhibition)” value [2] was greater than 20 % inhibition and the “Gal4 activity range @ 1 μM (% inhibition)” value [2] was greater than 80 % inhibition.

`Fc1c(NCC2CCOCC2)ncnc1N1CCOC[C@@H]1c1ccc(C(F)(F)F)cc1` [Example 247, 5-fluoro-N-(tetrahydropyran-4-ylmethyl)-6-[(3S)-3-[4-(trifluoromethyl)phenyl]morpholin-4-yl]pyrimidin-4-amine] was tested, and the pIC50 [1] was greater than 5.00, the “Gal4 activity range @ 0.1 μM (% inhibition)” value [2] was greater than 20 % inhibition and the “Gal4 activity range @ 1 μM (% inhibition)” value [2] was greater than 80 % inhibition.

For `CC1CC(c2ccc(C(F)(F)F)cc2)N(c2ncnc(NCc3ccc(CC(N)=O)cc3)c2F)C1` (stereo not drawn) [Example 248, 2-[4-[[[5-fluoro-6-[4-methyl-2-[4-(trifluoromethyl)phenyl]pyrrolidin-1-yl]pyrimidin-4-yl]amino]methyl]phenyl]acetamide], the pIC50 [1] was greater than 6.00, the “Gal4 activity range @ 0.1 μM (% inhibition)” value [2] was greater than 20 % inhibition and the “Gal4 activity range @ 1 μM (% inhibition)” value [2] was greater than 80 % inhibition.

With `NC(=O)Cc1ccc(Cn2ccc3c(N4CCOC[C@@H]4c4ccc(OC(F)(F)F)cc4)ncnc32)cc1` [Example 252, 2-[4-[[4-[(3S)-3-[4-(trifluoromethoxy)phenyl]morpholin-4-yl]pyrrolo[2,3-d]pyrimidin-7-yl]methyl]phenyl]acetamide] the pIC50 [1] was greater than 6.30, the “Gal4 activity range @ 0.1 μM (% inhibition)” value [2] was greater than 80 % inhibition and the “Gal4 activity range @ 1 μM (% inhibition)” value [2] was greater than 80 % inhibition.

For `CS(=O)(=O)CC1(CNc2ncnc(N3CCOC[C@@H]3c3ccc(C(F)(F)F)cc3)c2F)CCOCC1` [Example 253, 5-fluoro-N-[[4-(methylsulfonylmethyl)tetrahydropyran-4-yl]methyl]-6-[(3S)-3-[4-(trifluoromethyl)phenyl]morpholin-4-yl]pyrimidin-4-amine], the pIC50 [1] was greater than 6.00, the “Gal4 activity range @ 0.1 μM (% inhibition)” value [2] was greater than 50 % inhibition and the “Gal4 activity range @ 1 μM (% inhibition)” value [2] was greater than 80 % inhibition.

`COC(=O)C1(CNc2ncnc(N3CCOCC3c3ccc(C(F)(F)F)cc3)c2F)CCOCC1` (stereo not drawn) [Example 254, methyl 4-[[[5-fluoro-6-[3-[4-(trifluoromethyl)phenyl]morpholin-4-yl]pyrimidin-4-yl]amino]methyl]tetrahydropyran-4-carboxylate] was tested, and the pIC50 [1] was greater than 6.30, the “Gal4 activity range @ 0.1 μM (% inhibition)” value [2] was greater than 50 % inhibition and the “Gal4 activity range @ 1 μM (% inhibition)” value [2] was greater than 80 % inhibition.

In the case of `NC(=O)C1(CNc2ncnc(N3CCOC[C@@H]3c3ccc(C(F)(F)F)cc3)c2F)CCOCC1` [Example 255, 4-[[[5-fluoro-6-[(3S)-3-[4-(trifluoromethyl)phenyl]morpholin-4-yl]pyrimidin-4-yl]amino]methyl]tetrahydropyran-4-carboxamide], the pIC50 [1] was greater than 5.70, the “Gal4 activity range @ 0.1 μM (% inhibition)” value [2] was greater than 20 % inhibition and the “Gal4 activity range @ 1 μM (% inhibition)” value [2] was greater than 50 % inhibition.

`N#CC1(CNc2ncnc(N3CCOC[C@@H]3c3ccc(C(F)(F)F)cc3)c2F)CCOCC1` [Example 257, 4-[[[5-fluoro-6-[(3S)-3-[4-(trifluoromethyl)phenyl]morpholin-4-yl]pyrimidin-4-yl]amino]methyl]tetrahydropyran-4-carbonitrile] was tested, and the pIC50 [1] was greater than 6.30, the “Gal4 activity range @ 0.1 μM (% inhibition)” value [2] was greater than 50 % inhibition and the “Gal4 activity range @ 1 μM (% inhibition)” value [2] was greater than 80 % inhibition.

In the case of `NC(=O)Cc1ccc(CNc2ncnc(N3CCOC[C@@H]3c3ccc(OC(F)(F)F)cc3F)c2F)cc1` [Example 258, 2-[4-[[[5-fluoro-6-[(3S)-3-[2-fluoro-4-(trifluoromethoxy)phenyl]morpholin-4-yl]pyrimidin-4-yl]amino]methyl]phenyl]acetamide], the pIC50 [1] was greater than 6.30, the “Gal4 activity range @ 0.1 μM (% inhibition)” value [2] was greater than 80 % inhibition and the “Gal4 activity range @ 1 μM (% inhibition)” value [2] was greater than 80 % inhibition.

For `Fc1c(NCC2CCOCC2)ncnc1N1CC(F)(F)CC1c1ccc(C(F)(F)F)cc1` (stereo not drawn) [Example 259, 6-[4,4-difluoro-2-[4-(trifluoromethyl)phenyl]pyrrolidin-1-yl]-5-fluoro-N-(tetrahydropyran-4-ylmethyl)pyrimidin-4-amine], the pIC50 [1] was greater than 6.30, the “Gal4 activity range @ 0.1 μM (% inhibition)” value [2] was greater than 50 % inhibition and the “Gal4 activity range @ 1 μM (% inhibition)” value [2] was greater than 80 % inhibition.

`CS(=O)(=O)CC1(CNc2ncnc(N3CC(F)(F)CC3c3ccc(C(F)(F)F)cc3)c2F)CCOCC1` (stereo not drawn) [Example 260, 6-[4,4-difluoro-2-[4-(trifluoromethyl)phenyl]pyrrolidin-1-yl]-5-fluoro-N-[[4-(methylsulfonylmethyl)tetrahydropyran-4-yl]methyl]pyrimidin-4-amine] was tested, and the pIC50 [1] was greater than 6.30, the “Gal4 activity range @ 0.1 μM (% inhibition)” value [2] was greater than 50 % inhibition and the “Gal4 activity range @ 1 μM (% inhibition)” value [2] was greater than 80 % inhibition.

For `OCC1(CNc2ncnc(N3CC(F)(F)CC3c3ccc(C(F)(F)F)cc3)c2F)COC1` (stereo not drawn) [Example 261, [3-[[[6-[4,4-difluoro-2-[4-(trifluoromethyl)phenyl]pyrrolidin-1-yl]-5-fluoro-pyrimidin-4-yl]amino]methyl]oxetan-3-yl]methanol], the pIC50 [1] was greater than 6.00, the “Gal4 activity range @ 0.1 μM (% inhibition)” value [2] was greater than 20 % inhibition and the “Gal4 activity range @ 1 μM (% inhibition)” value [2] was greater than 80 % inhibition.

`CC(=O)N1CCC(F)(CNc2ncnc(N3CCOC[C@@H]3c3ccc(C(F)(F)F)cc3)c2F)CC1` [Example 262, 1-[4-fluoro-4-[[[5-fluoro-6-[(3S)-3-[4-(trifluoromethyl)phenyl]morpholin-4-yl]pyrimidin-4-yl]amino]methyl]-1-piperidyl]ethanone] was tested, and the pIC50 [1] was greater than 6.00, the “Gal4 activity range @ 0.1 μM (% inhibition)” value [2] was greater than 20 % inhibition and the “Gal4 activity range @ 1 μM (% inhibition)” value [2] was greater than 50 % inhibition.

For `O=S(=O)(N1CCC(CNc2ncnc(N3CCOC[C@@H]3c3ccc(C(F)(F)F)cc3)c2F)CC1)C(F)(F)F` [Example 263, 5-fluoro-6-[(3S)-3-[4-(trifluoromethyl)phenyl]morpholin-4-yl]-N-[[1-(trifluoromethylsulfonyl)-4-piperidyl]methyl]pyrimidin-4-amine], the pIC50 [1] was greater than 6.30, the “Gal4 activity range @ 0.1 μM (% inhibition)” value [2] was greater than 50 % inhibition and the “Gal4 activity range @ 1 μM (% inhibition)” value [2] was greater than 80 % inhibition.

With `Fc1c(NCC2(F)CCOCC2)ncnc1N1CCOC[C@@H]1c1ccc(C(F)(F)F)cc1` [Example 264, 5-fluoro-N-[(4-fluorotetrahydropyran-4-yl)methyl]-6-[(3S)-3-[4-(trifluoromethyl)phenyl]morpholin-4-yl]pyrimidin-4-amine] the pIC50 [1] was greater than 6.30, the “Gal4 activity range @ 0.1 μM (% inhibition)” value [2] was greater than 20 % inhibition and the “Gal4 activity range @ 1 μM (% inhibition)” value [2] was greater than 80 % inhibition.

For `NC(=O)Cc1ccc(CN2CCc3c2ncnc3N2CCC[C@@H]2c2ccc(C(F)(F)F)cc2)cc1` [Example 265, 2-[4-[[4-[(2R)-2-[4-(trifluoromethyl)phenyl]pyrrolidin-1-yl]-5,6-dihydropyrrolo[2,3-d]pyrimidin-7-yl]methyl]phenyl]acetamide], the pIC50 [1] was greater than 6.30, the “Gal4 activity range @ 0.1 μM (% inhibition)” value [2] was greater than 80 % inhibition and the “Gal4 activity range @ 1 μM (% inhibition)” value [2] was greater than 80 % inhibition.

For `CS(=O)(=O)N1CCC(F)(CNc2ncnc(N3CCOC[C@@H]3c3ccc(C(F)(F)F)cc3)c2F)CC1` [Example 266, 5-fluoro-N-[(4-fluoro-1-methylsulfonyl-4-piperidyl)methyl]-6-[(3S)-3-[4-(trifluoromethyl)phenyl]morpholin-4-yl]pyrimidin-4-amine], the pIC50 [1] was greater than 6.30, the “Gal4 activity range @ 0.1 μM (% inhibition)” value [2] was greater than 80 % inhibition and the “Gal4 activity range @ 1 μM (% inhibition)” value [2] was greater than 80 % inhibition.

In the case of `CS(=O)(=O)N[C@H]1CC[C@H](CNc2ncnc(N3CCOC[C@@H]3c3ccc(OC(F)(F)F)cc3)c2F)CC1` [Example 267, N-[4-[[[5-fluoro-6-[(3S)-3-[4-(trifluoromethoxy)phenyl]morpholin-4-yl]pyrimidin-4-yl]amino]methyl]cyclohexyl] methanesulfonamide], the pIC50 [1] was greater than 6.30, the “Gal4 activity range @ 0.1 μM (% inhibition)” value [2] was greater than 80 % inhibition and the “Gal4 activity range @ 1 μM (% inhibition)” value [2] was greater than 80 % inhibition.

For `O=S(=O)(NC1CC1)c1ccc(CNc2ncnc(N3CCOCC3c3ccccc3)c2F)cc1` (stereo not drawn) [Example 273, N-cyclopropyl-4-[[[5-fluoro-6-(3-phenylmorpholin-4-yl)pyrimidin-4-yl]amino]methyl] benzenesulfonamide], the pIC50 [1] was greater than 6.30, the “Gal4 activity range @ 0.1 μM (% inhibition)” value [2] was greater than 20 % inhibition and the “Gal4 activity range @ 1 μM (% inhibition)” value [2] was greater than 80 % inhibition.

In the case of `CS(=O)(=O)N1CCC(CNc2ncnc(N3CCOCC3c3ccccc3)c2F)CC1` (stereo not drawn) [Example 274, 5-fluoro-N-[(1-methylsulfonyl-4-piperidyl)methyl]-6-(3-phenylmorpholin-4-yl)pyrimidin-4-amine], the pIC50 [1] was greater than 5.70, the “Gal4 activity range @ 0.1 μM (% inhibition)” value [2] was greater than 20 % inhibition and the “Gal4 activity range @ 1 μM (% inhibition)” value [2] was greater than 50 % inhibition.
